Test results as given in patent US10858360B2, “Tricyclic gyrase inhibitors” (priority 2011, dated 2020).
In brackets after ≈: the same amount, converted by molar mass. Where two headings read alike, the source gives them in different places.

Experiments:
S. aureus ATCC 13709 = assay: MIC, S. aureus ATCC 13709 (Alamar Blue broth microdilution); type: cell-based; details: for MIC: Staphylococcus aureus, ATCC13709, S. aureus
E. coli ATCC 25922 = assay: MIC, E. coli ATCC 25922; type: cell-based; details: for MIC: Escherichia coli, ATCC25922, E. coli
[1] = Alamar Blue read after overnight incubation at 35° C.
[2] = S. aureus, Alamar Blue read after overnight incubation at 35° C.
[3] = E. coli, Alamar Blue read after overnight incubation at 35° C.

SMILES	MIC (S. aureus ATCC 13709; [1]) [µg/mL]	MIC (E. coli ATCC 25922; [1]) [µg/mL]	MIC Sa (S. aureus ATCC 13709; [2]) [µg/mL]	MIC Ec (E. coli ATCC 25922; [3]) [µg/mL]	further results
Cc1cccc2c1[nH]c1nc(Sc3cnc4nccnc4c3)nc(N3CC4C(N)C4C3)c12 (stereo not shown) [1.7]	4 (≈ 9.08 µM)	> 32			
CNc1cc(F)cc2c1[nH]c1nc(Oc3cncc(OC)c3)nc(N3CC4C(N)C4C3)c12 (stereo not shown) [4.164]	≤ 0.5	1 (≈ 2.3 µM)			
CNc1cc(F)cc2c1[nH]c1nc(Oc3cnc(N)nc3)nc(N3CCC(N)C3)c12 (stereo not shown) [4.179]			≤0.5	1 (≈ 2.44 µM)	
CNc1cc(F)cc2c1[nH]c1nc(Oc3cnc4cccnc4c3)nc(N3CC4[C@H](C[C@H]4N)C3)c12 (stereo partly shown) [4.043]	≤ 0.5	≤ 0.5			
CNc1cc(F)cc2c1[nH]c1nc(Oc3cnc(CC(=O)N(C)OC)nc3)nc(N3C[C@H](N)C4(CC4)C3)c12 [4.370]	≤ 0.5	1 (≈ 1.92 µM)			
CNc1cccc2c1[nH]c1nc(Oc3cncnc3)nc(N3CC4CC4(N)C3)c12 (stereo not shown) [3.1]	1 (≈ 2.57 µM)	4 (≈ 10.3 µM)			
N[C@@H]1CCN(c2nc(Sc3cnc4ccc[n+]([O-])c4c3)nc3[nH]c4c(Cl)cccc4c23)C1 [1.4]	32 (≈ 69 µM)	64 (≈ 138 µM)			
CCc1ncc(Oc2nc(N3CC4C[C@@H](N)C4C3)c3c(n2)[nH]c2c(NC)cc(F)cc23)cn1 (stereo partly shown) [4.264]	≤ 0.5	≤ 0.5			
CNc1cc(F)cc2c1[nH]c1nc(Oc3cnc4c(c3)OCCO4)nc(N3CC4CC(N)C4C3)c12 (stereo not shown) [4.294]	≤ 0.5	1 (≈ 2.09 µM)			
CNc1cc(F)cc2c1[nH]c1nc(Oc3cncnc3)nc(N3C4CCC3CC(N)C4)c12 (stereo not shown) [4.025]	≤ 0.5	2 (≈ 4.6 µM)			
CNc1cccc2c1[nH]c1nc(Oc3cnc(N)nc3)nc(N3CC4C(N)C4C3)c12 (stereo not shown) [3.32]	≤ 0.5	2 (≈ 4.96 µM)			
CNc1cccc2c1[nH]c1nc(Sc3cnc4cccnc4c3)nc(N3CC4C(N)C4C3)c12 (stereo not shown) [1.24]			≤0.5	1 (≈ 2.2 µM)	
Cc1ncc(Oc2nc(N3C[C@H](N)C4(CC4)C3)c3c(n2)[nH]c2c(N(C)C(=O)CN)cc(F)cc23)cn1 [4.426]	8 (≈ 16.3 µM)	> 16			
CNc1cccc2c1[nH]c1nc(Oc3cncnc3)nc(N3CC(N)C4(CC4)C3)c12 (stereo not shown) [3.45]	≤ 0.5	≤ 0.5			
CNc1c(F)ccc2c1[nH]c1nc(Oc3cncnc3)nc(N3CC4C(N)C4C3)c12 (stereo not shown) [6.02]					MIC Sa (S. aureus ATCC 13709): ≤0.5 µg/mL; MIC Ec (E. coli ATCC 25922): ≤0.5 µg/mL
CNc1c(F)ccc2c1[nH]c1nc(Oc3cnc4cccnc4c3)nc(N3CC(N)C4(CC4)C3)c12 (stereo not shown) [6.03]					MIC Sa (S. aureus ATCC 13709): ≤0.5 µg/mL; MIC Ec (E. coli ATCC 25922): ≤0.5 µg/mL

SMILES	MIC (S. aureus ATCC 13709; [1]) [µg/mL]	MIC (E. coli ATCC 25922; [1]) [µg/mL]	MIC Sa (S. aureus ATCC 13709; [2]) [µg/mL]	MIC Ec (E. coli ATCC 25922; [3]) [µg/mL]	further results
CNc1cc(F)cc2c1[nH]c1nc(Oc3cnc(CO)nc3)nc(N3CC4C(N)CC4(C)C3)c12 (stereo not shown) [4.389]			≤0.5	≤0.5	
CNc1cccc2c1[nH]c1nc(Sc3cnc4cccnc4c3)nc(N3CCC(C)(N)C3)c12 (stereo not shown) [1.59]	1 (≈ 2.19 µM)	4 (≈ 8.76 µM)			
CNc1ncc(Oc2nc(N3CC(N)C4(CC4)C3)c3c(n2)[nH]c2c(NC)cc(F)cc23)cn1 (stereo not shown) [4.216]			≤0.5	≤0.5	
CNc1cc(F)cc2c1[nH]c1nc(Oc3cnc(N4CC(C)(N)C4)nc3)nc(N3CCC4(C[C@@H]4N)C3)c12 (stereo partly shown) [4.341]			≤0.5	1 (≈ 1.98 µM)	
CNc1cc(F)cc2c1[nH]c1nc(Oc3cnc4c(c3)C(=O)NC4)nc(N3C[C@H](N)C4(CC4)C3)c12 [4.356]	≤ 0.5	4 (≈ 8.43 µM)			
CNc1cccc2c1[nH]c1nc(Sc3cncc(S(=O)(=O)NCCO)c3)nc(N3CC4C(N)C4C3)c12 (stereo not shown) [1.42]	8 (≈ 15.2 µM)	32 (≈ 60.8 µM)			
CNc1cccc2c1[nH]c1nc(Oc3cnc(N)nc3)nc(Oc3cnc(N)nc3)c12 [3.53]	8 (≈ 19.2 µM)	> 64			
COc1cccc2c1[nH]c1nc(Oc3cncnc3)nc(N3CCC(NC(C)=O)C3)c12 (stereo not shown) [2.11]			4 (≈ 9.54 µM)	>64	
CNc1cc(F)cc2c1[nH]c1nc(Oc3cnc(N)nc3)nc(N3CC4C(N)C4C3)c12 (stereo not shown) [4.172]	≤ 0.5	≤ 0.5			
CNc1cc(F)cc2c1[nH]c1nc(Oc3cnc(C)nc3)nc(N3CC(NCCN)C4(CC4)C3)c12 (stereo not shown) [4.090]			≤0.5	4 (≈ 8.38 µM)	
CNc1cccc2c1[nH]c1nc(Sc3cnc4ccc[n+]([O-])c4c3)nc(N3CCC4(CC4N)C3)c12 (stereo not shown) [1.39]			≤0.5	1 (≈ 2.06 µM)	
CNc1cccc2c1[nH]c1nc(Sc3cnc4ccc[n+]([O-])c4c3)nc(N3CC4CC3CN4)c12 (stereo not shown) [1.57]	> 32	> 32			
CNc1cc(F)cc2c1[nH]c1nc(Oc3cnc(C)nc3)nc(N3CC(N)C4(CC4)C3)c12 (stereo not shown) [4.068]			≤0.5	≤0.5	
CNc1cc(F)cc2c1[nH]c1nc(Oc3cnc(C)nc3)nc(N3CC4CC(N)C4C3)c12 (stereo not shown) [4.110]			≤0.5	≤0.5	
NC1CN(c2nc(Sc3cnc4nccnc4c3)nc3[nH]c4ccccc4c23)C1 [1.5]	> 64	> 64			
CNc1ncc(Oc2nc(N3CC4CC(N)C4C3)c3c(n2)[nH]c2c(NC)cc(F)cc23)cn1 (stereo not shown) [4.221]	≤ 0.5	2 (≈ 4.45 µM)			
